Reference: patent publication US8993526B2, “Method for counteracting the perception of sweat malodour by decreasing the function of carboxylic acid-binding olfactory receptors” (ChemCom S.A., priority 2011, dated 2015)

Columns and labels:
Assay type in all cases: cell-based
Settings in all cases: tested at 1 mM, 316 μM, 100 μM; hit = luciferase activity >= median + 2 standard deviations
[1] = biological target: T1, OR56A5 (Homo sapiens, UniProt P0C7T3, R311K/V104M); assay: CRE-luciferase reporter assay, OR56A5 in HEK293T-RTP1A1/RTP2 cells
T1 construct: expressed in transfected cells; host or cells: HEK293T-RTP1A1/RTP2
T1 sequence (P0C7T3 1-313 V104M/R311K): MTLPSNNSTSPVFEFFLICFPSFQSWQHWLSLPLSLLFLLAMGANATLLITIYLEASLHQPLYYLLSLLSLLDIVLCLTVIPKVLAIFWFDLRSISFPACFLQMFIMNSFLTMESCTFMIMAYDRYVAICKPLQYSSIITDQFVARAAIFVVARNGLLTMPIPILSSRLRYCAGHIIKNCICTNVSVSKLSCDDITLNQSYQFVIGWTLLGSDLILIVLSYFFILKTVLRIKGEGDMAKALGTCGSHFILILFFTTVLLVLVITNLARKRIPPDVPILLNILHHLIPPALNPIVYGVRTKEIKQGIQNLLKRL
Protocol: (§1) Cells were maintained in minimal essential medium (EMEM, Lonza) containing 10% fetal bovine serum (M10). HEK293T-RTP1A1/RTP2 cells were generated by transfecting HEK293T with an expression vector containing the sequences of the chaperone proteins RTP1A1 and RTP2 and a resistance gene to puromycin, using Lipofectamine 2000. A recombinant cell population was selected by adding 10 μg/ml of puromycin into the culture medium. Monoclonal populations were further obtained by limit dilution procedure. Briefly, a cell suspension was diluted to contain 1 cell per ml and this dilution was dispatched in poly-D-lysine-coated 96 wells plates (200 μl of dilution per well). After 5 days of culture, the presence and number of cell colonies per well was checked under a phase contrast microscopic. After 5 additional days of culture, wells containing a single colony were harvested and each collected population was amplified independently.
(§2) For screening experiments, stock solutions of odorant molecules were diluted in EMEM disposed in 96-well plates. Plates containing the tested molecules (1 molecule/well) at a concentration of 2 mM, at a concentration of 632 μM and at a concentration of 200 μM were prepared.
(§3) For concentration-response analysis, serial dilutions of the tested molecules were prepared from stock solutions in EMEM plated into 96-well plates.
(§4) For the initial deorphanisation screening and dose-response analysis, a Luciferase-based gene reporter assay (Promega, Leiden, The Nederlands) was used as described in Saito et al. (2004). Briefly, cells were platted on poly-D-lysine-coated 96-well plates (BD Bioscience, Erembodegem-Dorp, Belgium) and transfected with a plasmid containing the CRE-luciferase and a plasmid containing the olfactory receptor. Sixteen hours after transfection, the culture medium was replaced by serum-free EMEM containing the tested ligand at a determined concentration. After four hours of incubation at 37° C. degree, cells were lysed and processed for luminescence measurement according to the manufacturer's protocols. Luminescene emission was recorded on a Spectra Max M5 reader (Molecular Devices, Sunnyvale, Calif.). Results were expressed as percentage of the response induced by 10 μM of the adenylate cyclase activator Forskolin.
(§5) Each molecule was tested at 3 different concentrations (1 mM, 316 μM, 100 μM). The different molecules of the tested libraries were disposed at the same concentration into 96 well plates (1 well/molecule) containing cells expressing the receptor of interest. The activity of the tested molecules was measured using the lucifierase activity as explained above. The median luciferase activity induced by the tested molecules and the associated standard deviation were determined. Putatively active molecules (hits) were defined as molecules inducing a luciferase activity higher or equal to the median+2 standard deviations.
(§6) The hits were validated by concentration-response analysis. Semi-logarithmic serial dilutions of hit molecules, from 1 mM to 316 nM, were tested on the responding ORs using the luciferase assay as described above.

[2] = biological target: T2, OR51I2 (Homo sapiens, UniProt Q9H344, T134A); assay: CRE-luciferase reporter assay, OR51I2 in HEK293T-RTP1A1/RTP2 cells
T2 construct: expressed in transfected cells; host or cells: HEK293T-RTP1A1/RTP2
T2 sequence (Q9H344 1-312 T134A): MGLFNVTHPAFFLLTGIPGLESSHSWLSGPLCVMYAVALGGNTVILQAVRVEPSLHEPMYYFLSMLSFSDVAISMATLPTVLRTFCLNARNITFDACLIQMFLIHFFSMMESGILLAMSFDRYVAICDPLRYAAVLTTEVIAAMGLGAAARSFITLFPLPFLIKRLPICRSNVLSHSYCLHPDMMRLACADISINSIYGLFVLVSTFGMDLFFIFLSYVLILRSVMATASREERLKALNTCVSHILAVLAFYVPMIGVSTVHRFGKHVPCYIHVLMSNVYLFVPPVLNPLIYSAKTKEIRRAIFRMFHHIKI
Protocol: as §1, §2, §3, §4, §5, §6

[3] = biological target: T3, OR52E8 (Homo sapiens, UniProt Q6IFG1); assay: CRE-luciferase reporter assay, OR52E8 in HEK293T-RTP1A1/RTP2 cells
T3 construct: expressed in transfected cells; host or cells: HEK293T-RTP1A1/RTP2
T3 sequence (Q6IFG1 with tags, fused parts or gaps): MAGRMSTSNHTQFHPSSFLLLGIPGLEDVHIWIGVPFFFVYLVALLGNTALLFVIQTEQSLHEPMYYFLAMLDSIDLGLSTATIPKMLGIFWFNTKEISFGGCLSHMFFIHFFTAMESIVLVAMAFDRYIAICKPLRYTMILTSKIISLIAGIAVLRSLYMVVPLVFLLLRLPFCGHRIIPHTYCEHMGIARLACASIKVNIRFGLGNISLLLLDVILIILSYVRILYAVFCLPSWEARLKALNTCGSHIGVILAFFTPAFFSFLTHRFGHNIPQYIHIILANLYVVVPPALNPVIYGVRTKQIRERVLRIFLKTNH
Protocol: as §1, with “After 5 days of culture, the presence and number of cell colonies per well was checked under a phase contrast microscopic. After 5 additional days of culture, wells containing a single colony were harvested and each collected population was amplified independently.” left out
as §4, with “Briefly, cells were platted on poly-D-lysine-coated 96-well plates (BD Bioscience, Erembodegem-Dorp, Belgium) and transfected with a plasmid containing the CRE-luciferase and a plasmid containing the olfactory receptor.” left out, “Forskolin. […]” for “Forskolin.”

[4] = biological target: T4, OR52A5 (Homo sapiens, UniProt Q9H2C5); assay: CRE-luciferase reporter assay, OR52A5 in HEK293T-RTP1A1/RTP2 cells
T4 construct: expressed in transfected cells; host or cells: HEK293T-RTP1A1/RTP2
T4 sequence (Q9H2C5 1-314 limits assumed): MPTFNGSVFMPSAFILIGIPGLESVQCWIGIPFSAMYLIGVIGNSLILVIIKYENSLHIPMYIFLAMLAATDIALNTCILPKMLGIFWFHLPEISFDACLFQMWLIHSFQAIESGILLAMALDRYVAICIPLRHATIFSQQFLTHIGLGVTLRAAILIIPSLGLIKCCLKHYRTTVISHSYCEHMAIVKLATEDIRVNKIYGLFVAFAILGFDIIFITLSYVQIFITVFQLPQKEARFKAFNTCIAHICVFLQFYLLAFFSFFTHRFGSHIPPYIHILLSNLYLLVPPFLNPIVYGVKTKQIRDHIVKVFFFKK
Protocol: as §1, with “After 5 days of culture, the presence and number of cell colonies per well was checked under a phase contrast microscopic. After 5 additional days of culture, wells containing a single colony were harvested and each collected population was amplified independently.” left out
as §4, with “Briefly, cells were platted on poly-D-lysine-coated 96-well plates (BD Bioscience, Erembodegem-Dorp, Belgium) and transfected with a plasmid containing the CRE-luciferase and a plasmid containing the olfactory receptor.” left out, “Forskolin. […]” for “Forskolin.”

[5] = biological target: T5, OR52E1 (Homo sapiens, UniProt Q8NGJ3, F254L/Y278C); assay: CRE-luciferase reporter assay, OR52E1 in HEK293T-RTP1A1/RTP2 cells
T5 construct: expressed in transfected cells; host or cells: HEK293T-RTP1A1/RTP2
T5 sequence (Q8NGJ3 whole entry F254L/Y278C): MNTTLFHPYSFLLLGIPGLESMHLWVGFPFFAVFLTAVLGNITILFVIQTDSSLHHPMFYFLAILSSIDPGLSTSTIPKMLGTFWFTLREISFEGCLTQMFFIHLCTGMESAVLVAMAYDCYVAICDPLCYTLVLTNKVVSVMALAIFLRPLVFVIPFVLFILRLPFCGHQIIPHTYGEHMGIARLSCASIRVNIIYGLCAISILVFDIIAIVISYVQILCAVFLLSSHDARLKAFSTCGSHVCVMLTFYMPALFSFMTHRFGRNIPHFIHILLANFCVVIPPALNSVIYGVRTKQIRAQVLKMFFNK
Protocol: as §1, with “independently. For screening experiments, stock solutions of odorant molecules were diluted in EMEM disposed in 96-well plates. Plates containing the tested molecules (1 molecule/well) at a concentration of 2 mM, at a concentration of 632 μM and at a concentration of 200 μM were prepared. For concentration-response analysis, serial dilutions of the tested molecules were prepared from stock solutions in EMEM plated into 96-well plates. […]” for “independently.”

[6] = biological target: T6, OR52B2 (Homo sapiens, UniProt Q96RD2); assay: CRE-luciferase reporter assay, OR52B2 in HEK293T-RTP1A1/RTP2 cells
T6 construct: expressed in transfected cells; host or cells: HEK293T-RTP1A1/RTP2
T6 sequence (Q96RD2 1-323): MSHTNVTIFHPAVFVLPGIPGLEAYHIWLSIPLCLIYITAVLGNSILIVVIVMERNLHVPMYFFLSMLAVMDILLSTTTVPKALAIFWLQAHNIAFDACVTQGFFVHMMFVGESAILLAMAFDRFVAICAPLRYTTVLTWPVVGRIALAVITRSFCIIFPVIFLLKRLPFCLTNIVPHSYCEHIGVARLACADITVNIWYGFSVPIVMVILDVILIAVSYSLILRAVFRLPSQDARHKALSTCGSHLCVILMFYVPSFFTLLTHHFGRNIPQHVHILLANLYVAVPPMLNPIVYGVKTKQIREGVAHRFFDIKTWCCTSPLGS
Protocol: as §1, §2, §3, §4, §5, §6

[7] = biological target: T7, OR52L1 (Homo sapiens, UniProt Q8NGH7, R140C/S130L); assay: CRE-luciferase reporter assay, OR52L1 in HEK293T-RTP1A1/RTP2 cells
T7 construct: expressed in transfected cells; host or cells: HEK293T-RTP1A1/RTP2
T7 sequence (Q8NGH7 1-329 S130L/R140C): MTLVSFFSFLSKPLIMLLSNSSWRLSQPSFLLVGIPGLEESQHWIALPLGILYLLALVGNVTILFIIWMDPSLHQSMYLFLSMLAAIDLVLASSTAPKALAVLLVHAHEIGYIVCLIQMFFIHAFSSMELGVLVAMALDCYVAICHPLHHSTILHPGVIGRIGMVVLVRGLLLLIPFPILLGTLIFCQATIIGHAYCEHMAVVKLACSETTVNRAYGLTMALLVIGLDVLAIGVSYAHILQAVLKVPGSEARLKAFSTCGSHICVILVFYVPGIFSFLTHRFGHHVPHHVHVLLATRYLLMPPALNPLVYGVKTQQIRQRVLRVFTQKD
Protocol: as §1, with “independently. For screening experiments, stock solutions of odorant molecules were diluted in EMEM disposed in 96-well plates. Plates containing the tested molecules (1 molecule/well) at a concentration of 2 mM, at a concentration of 632 μM and at a concentration of 200 μM were prepared. For concentration-response analysis, serial dilutions of the tested molecules were prepared from stock solutions in EMEM plated into 96-well plates. […]” for “independently.”

Compound	activation of OR56A5 (hit in luciferase assay) [1]	activation of OR51I2 (hit in luciferase assay) [2]	activation of OR52B2 (hit in luciferase assay) [6]	further results
CCCCCC(C)C(=O)O (stereo not shown) [2-methylheptanoic acid]	activation	–	–	–
CCCC(C)(O)CC(=O)O (stereo not shown) [3-hydroxy-3-methylhexanoic acid]	–	–	–	activation of OR52E8 (hit in luciferase assay) [3]: activation
CCCCC(CC)CCC(=O)O (stereo not shown) [4-ethyloctanoic acid]	–	–	–	activation of OR52A5 (hit in luciferase assay) [4]: activation
CCC/C(C)=C/C(=O)O [(E)-3-methyl-2-hexanoic acid]	–	activation	–	–
O=C(O)c1ccccc1 [benzoic acid]	–	activation	–	–
CCCC(=O)O [butanoic acid]	–	activation	–	activation of OR52E1 (hit in luciferase assay) [5]: activation
CCCCCCC(=O)O [heptanoic acid]	activation	–	activation	–
CCCCCC(=O)O [hexanoic acid]	activation	activation	activation	–
CCCCCCCCC(=O)O [nonanoic acid]	activation	–	activation	–
CCCCCCCC(=O)O [octanoic acid]	activation	–	activation	–

Further lines, with some results ahead:

activation of OR56A5 (hit in luciferase assay) [1]	activation of OR51I2 (hit in luciferase assay) [2]	Compound	activation of OR52B2 (hit in luciferase assay) [6]	further results
–	activation	CCCCC(C)C(=O)O (stereo not shown) [2-methylhexanoic acid]	–	–
–	activation	CCCC(C)CC(=O)O (stereo not shown) [3-methylhexanoic acid]	–	–
activation	–	CCCCCCCCCC(=O)O [decanoic acid]	activation	–
–	activation	CC(C)CC(=O)O [isovaleric acid]	–	–
–	activation	CCCCC(=O)O [pentanoic acid]	–	activation of OR52L1 (hit in luciferase assay) [7]: activation
activation	–	CCCCCCCCCCC(=O)O [undecanoic acid]	activation	–
